The structures appear in SMILES notation. Converted amounts (≈) assume the structure as drawn. Like-named read-outs stand apart in the source and are kept apart here.

Here are results for six compounds from patent publication US10000452B1, “Quinolone-based compounds, formulations, and uses thereof” (University of South Florida, priority 2016, dated 2018).

Data set [1] relates to malarial strain W2 (pyrimethamine and chloroquine-resistant). As to the kind of experiment: in vitro antimalarial activity against multidrug resistant strain W2. Type of data set: cell-based, P. falciparum. To be noted: Plasmodium falciparum, read-out: EC50 W2 (nM).
For data set [2], the system named is malarial strain TM90-C2B (mefloquine, chloroquine, atovaquone, and pyrimethamine-resistant). The data set can be described thus: microbe, parasite or virus in culture. Type of data set: cell-based, P. falciparum. To be noted: for EC50: Plasmodium falciparum, TM90, read-out: EC50 TM90-C2B (nM). The text has this:
Ideally, the RI of a compound should lie between 0.3 and 3.0 in order to avoid rapidly inducing resistance in the parasite. […]

Data set [3] relates to P. berghei sporozoites expressing luciferase. As to the kind of experiment: in vitro liver stage activity, luciferase sporozoites infecting HEPG2 hepatoma cells. The data set is classed as cell-based. To be noted: Plasmodium berghei, HEPG2 cells.
Another data set deals with J774 mammalian cells. As to the kind of experiment: cytotoxicity to J774 cells. The data set is classed as cell-based. The settings on record: Mus musculus, J774, read-out: EC50 J774 (μM). As for the experimental part: This allowed a simplified method for comparing the different assays being simultaneously run. Additionally, each compound was also tested for cytotoxicity using mammalian J774 cell lines in a 96-well plate format.^12-14, 16

Data set [4] is described as follows: aqueous solubility (LC/MS- or HPLC-based assay). The data set is classed as physicochemical. Put shortly: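 Aqueous solubility and log D (pH 7.4) determined by LC/MS-based assays; solubility examined at more than one pH.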
Data set [5] can be described thus: lipophilicity log D at pH 7.4. Type of data set: physicochemical. To be noted: octanol/water. The text has this: Furthermore, to profile the properties of the piperazinyl-4(1H)-quinolones, and to identify potential limitations, aqueous solubility and lipophilicity log D were experimentally determined via LC/MS-based assays as described by the Manetsch laboratory previously^8,10,31,32 (Tables 9-12). Encouragingly, the piperazinyl-4(1H)-quinolones were much more soluble than the previously described phenoxyethoxy-4(1H)-quinolone analogues.^19 As expected, the solubility of all compounds was affected by pH, with better solubility under more acidic conditions.
In parallel to testing the compounds for in vitro antimalarial activity, a limited structure-property relationship (SPR) study focusing on log D and aqueous solubility was conducted to assess potential physiochemical liabilities (FIG. 22). […] For these reasons, physicochemical properties were not strongly considered as selection criteria for in vivo efficacy studies.

The next data set concerns Pb-infected mice. As to the kind of experiment: in vivo efficacy scouting assay against blood stages. On the set-up: species or system P. berghei; mice. The settings on record: for activities in these scout assays: result in words. How it is done:
The screening involved a single oral 50 mg/kg dose 1 day post infection (PI) and an assessment of parasitemia on days 3 PI and 6 PI (Table 6).
The screening was performed by treating two infected mice with a single 50 mg/kg oral dose of test compound suspended in PEG400 on day 1 postexposure (PE) followed by assessing parasitemia on days 3 and 6 PE.

Where [6] appears, read: aqueous medium, pH 2, simulated gastric fluid, pH 2.0, read-out: Solubility pH 2.0.
[7] abbreviates: aqueous medium, pH 6.5, aqueous buffer, pH 6.5, read-out: Solubility pH 6.5.
The mark [8] stands for this setting: single oral 50 mg/kg dose 1 day PI.
Where [9] appears, read: single oral 50 mg/kg dose 1 day PI, vs untreated animals.
Setting [10] is: aqueous solution, pH 2, simulated gastric fluid, pH 2.0, read-out: Solubility pH 2.0.
[11] abbreviates: aqueous solution, pH 6.5, aqueous buffer, pH 6.5, read-out: Solubility pH 6.5.

As for `COC(=O)c1c[nH]c2cc(CN3CCN(c4ccccc4)CC3)c(OC)cc2c1=O` [Compound 8w, Methyl 6-methoxy-4-oxo-7-((4-phenylpiperazin-1-yl)methyl)-1,4-dihydroquinoline-3-carboxylate], the EC50 (usually the concentration that produces a half-maximal response) in data set [1] is 1.62 nM; in data set [2], 493 nM; in data set [3] it was 113 nM; with J774 mammalian cells it was greater than 20 µM. The solubility in data set [4] (setting [6]) and in data set [4] (setting [7]) was no less than 80 µM throughout. The chromatographic logD – broadly, a lipophilicity value derived from retention on a column – in data set [5] stood at 1.32. Besides, the “activities in these scout assays” value in the data set on Pb-infected mice (setting [8]) is “excellent activities”. Further, the “% Inhibition Day 6 PI” value with Pb-infected mice (setting [9]) worked out at 82.4%.

Regarding `COC(=O)c1c[nH]c2cc(CN3CCN(Cc4ccccc4)CC3)ccc2c1=O` [Compound 8k, Methyl 7-((4-benzylpiperazin-1-yl)methyl)-4-oxo-1,4-dihydroquinoline-3-carboxylate], the EC50 was determined as 1.41 nM in data set [1], 153 nM in data set [2], 43.7 nM in data set [3] and 10.4 µM in the data set with J774 mammalian cells. In addition, the solubility in data set [4] (setting [6]) and in data set [4] (setting [7]) was no less than 80 µM in each case. In data set [5], this compound registered a chromatographic logD of 2.06. Further, in the data set with Pb-infected mice (setting [9]), the “% Inhibition Day 6 PI” value is recorded as “little to moderate protection”.

Consider `COC(=O)c1c[nH]c2cc(CN3CCN(Cc4ccccc4)CC3)c(C)cc2c1=O` [Compound 8r, Methyl 7-((4-benzylpiperazin-1-yl)methyl)-6-methyl-4-oxo-1,4-dihydroquinoline-3-carboxylate], for which the EC50 in data set [1] was 1.45 nM; in data set [2], 890 nM; in data set [3] it was 9.46 nM; in the data set with J774 mammalian cells it was greater than 20 µM. Besides, the solubility in data set [4] (setting [6]) and in data set [4] (setting [7]) was no less than 80 µM in each case. In data set [5], this compound showed a chromatographic logD of 1.94. For the same compound, the “% Inhibition Day 6 PI” value with Pb-infected mice (setting [9]) was “little to moderate protection”.

With `COC(=O)c1c[nH]c2cc(CN3CCN(c4ccc(F)cc4)CC3)ccc2c1=O` [Compound 8o, Methyl 7-((4-(4-fluorophenyl)piperazin-1-yl)methyl)-4-oxo-1,4-dihydroquinoline-3-carboxylate], the EC50 in data set [1] was found to be 1.75 nM; in data set [2], 131 nM; in data set [3], 1.06 nM; in the data set on J774 mammalian cells, 2 µM. For the same compound, the RI in data set [2] (RI = EC50 TM90-C2B/EC50 W2) was determined as 74.9. Also, the solubility in data set [4] (setting [10]) and in data set [4] (setting [11]) was no less than 80 µM each time. Moreover, the chromatographic logD in data set [5] is 2.38. Besides, in the data set on Pb-infected mice (Plasmodium berghei, po, 144 h, read-out: % Inhibition Day 6 PI), the inhibition in vivo at 50 mg/kg was greater than 85%. Also, the “activities in these scout assays” value with Pb-infected mice (setting [8]) was “excellent activities”. For the same compound, the “% Inhibition Day 3 PI” value in the data set on Pb-infected mice (setting [9]) is given as “full inhibition”.

On to `COC(=O)c1c[nH]c2cc(CN3CCN(Cc4ccccc4)CC3)c(OC)cc2c1=O` [Compound 8x, Methyl 7-((4-benzylpiperazin-1-yl)methyl)-6-methoxy-4-oxo-1,4-dihydroquinoline-3-carboxylate], for which the EC50 in data set [1] is 5.45 nM; in data set [2], 2830 nM; in data set [3] it was 9.26 nM; in the data set on J774 mammalian cells, greater than 20 µM. Moreover, the solubility – broadly, the dissolved amount per volume that the medium holds – in data set [4] (setting [6]) is no less than 80 µM; in data set [4] (setting [7]), 60 to 79.9 µM (≈ 25.3 to 33.7 µg/mL). Further, in data set [5], the chromatographic logD turned out to be 1.28. The “% Inhibition Day 6 PI” value with Pb-infected mice (setting [9]) is reported as “little to moderate protection”.

As for `COC(=O)c1c[nH]c2cc(CN3CCN(c4ccc(OC)cc4)CC3)c(OC)cc2c1=O` [Compound 8z, Methyl 6-methoxy-7-((4-(4-methoxyphenyl)piperazin-1-yl)methyl)-4-oxo-1,4-dihydroquinoline-3-carboxylate], the concentration giving a half-maximal response (EC50) is 3.38 nM in data set [1], 861 nM in data set [2], 10.4 nM in data set [3] and 15.7 µM with J774 mammalian cells. The solubility in data set [4] (setting [10]) and in data set [4] (setting [11]) was no less than 80 µM each time. Also, the chromatographic logD in data set [5] turned out to be 2.19. In addition, the “activities in these scout assays” value with Pb-infected mice (setting [8]) is “excellent activities”. The “% Inhibition Day 6 PI” value in the data set with Pb-infected mice (setting [9]) was found to be 70.6%.
